{"source": "patent US20260284051A1", "about": "“METHIONINE ADENOSYLTRANSFERASE 2A (MAT2A) INHIBITOR COMBINATIONS AND USES THEREOF” (INSILICO MEDICINE IP LIMITED, priority 2023, published 2026)", "test_system": "NCI-H838 MTAP null xenografts", "assay": "Efficacy study of NCI-H838 human lung cancer xenograft model in NOD SCID mice", "type": "in vivo", "details": "for Tumor volume (mm^3) Final (mean): Mean ± SD", "text": "Efficacy Study of NCI-H838 Human Lung Cancer Xenograft Model in NOD SCID Mice Methods:\nThe NCI-H838 cancer cells were maintained in vitro with RPMI-1640 medium supplemented with 10% fetal bovine serum at 37TC in an atmosphere of 5% CO2 in the air. The cells in exponential growth phase were harvested and quantitated by cell counter before tumor inoculation.\nNOD SCID mice, female, 6-8 weeks, weighing approximately 20-22 g, All the mice were purchased from Shanghai Lingchang Bio-Tech Co., Ltd.\nEach mouse was inoculated subcutaneously at the right flank with NCI-H838 cells in a 0.1 mL of PBS mixed with Matrigel (1:1) for tumor development (5×10^6 cells/mouse). Dosing was started when the average tumor size reached approximately ~150 mm^3 for the tumor efficacy study with tool and med chem molecules to look for efficacy vs vehicle tumor growth.\nMean tumor volume at dosing start was approximately 146.51 mm^3, with six mice randomized to each treatment group. In the NCI-H838 MTAP null tumor model, mice were dosed orally, once per day (QD) with vehicle, once per day (QD) with Compound 1 at 3, 10 mg/kg, mice were intravenous, once per day (QD) with PRMT5 inhibitor MRTX1719 at 50 mg/kg, or Compound 1 combined with MRTX1719 at each dose level.", "key": {"[1]": {"details": "combination: Compound 1 3 mg/kg QD + MRTX1719 50 mg/kg QD"}, "[2]": {"details": "combination: Compound 1 10 mg/kg QD + MRTX1719 50 mg/kg QD"}}}
{"smiles": "C#CCNc1nc(=O)n(-c2cccnc2C)c2cc(C(F)(F)F)cc(OC)c12", "note": "[Example 36, 5-methoxy-1-(2-methylpyridin-3-yl)-4-(prop-2-yn-1-ylamino)-7-(trifluoromethyl)quinazolin-2(1H)-one]", "values": [{"measurement": "TGI (%)", "setting": "Compound 1 3 mg/kg orally QD", "value": 1.6, "unit": "%"}, {"measurement": "Tumor volume (mm^3) Final (mean)", "setting": "Compound 1 3 mg/kg orally QD", "value": "2029 ± 239", "unit": "mm^3"}, {"measurement": "TGI (%)", "setting": "Compound 1 10 mg/kg orally QD", "value": 19.9, "unit": "%"}, {"measurement": "Tumor volume (mm^3) Final (mean)", "setting": "Compound 1 10 mg/kg orally QD", "value": "1678 ± 113", "unit": "mm^3"}, {"measurement": "effect on tumor growth (in words)", "setting": "combination of Compound 1 (3, 10 mg/kg) and MRTX1719 50 mg/kg", "value": "significantly inhibited tumor growth"}, {"measurement": "synergy effect", "setting": "combination: Compound 1 3 mg/kg + MRTX1719 50 mg/kg", "value": 1.02}, {"measurement": "TGI (%)", "setting": "[1]", "value": 83.2, "unit": "%"}, {"measurement": "Tumor volume (mm^3) Final (mean)", "setting": "[1]", "value": "468 ± 115", "unit": "mm^3"}, {"measurement": "synergy effect", "setting": "combination: Compound 1 10 mg/kg + MRTX1719 50 mg/kg", "value": 1.21}, {"measurement": "TGI (%)", "setting": "[2]", "value": 103.1, "unit": "%"}, {"measurement": "Tumor volume (mm^3) Final (mean)", "setting": "[2]", "value": "88 ± 7", "unit": "mm^3"}]}
